{
  "source": "patent US20260200923A1",
  "about": "“HETEROCYCLIC COMPOUNDS TARGETING THE NUDT5 PROTEIN” (Oxford University Innovation Limited, priority 2022, published 2026)",
  "key": {"[1]": {"test_system": "patient-derived fibroblast lines with MTHFD1 mutations", "experiment": "adenosine toxicity in fibroblasts from MTHFD1 deficiency patients", "assay_type": "cell-based", "settings": "patient-derived cells", "procedure": "Patient-derived fibroblast and control fibroblast lines were cultured in Minimum Essential Medium alpha media (MEMα, no nucleosides, Gibco), supplemented with 10% FBS and 1% P/S. These patient-derived fibroblast lines were previously characterized in Burda et al. 2015. For the experiments using dialyzed FBS, the dialyzed FBS was purchased from Gibco and added to IMDM at a final concentration of 10%. All the cell lines were incubated in 5% CO2 atmosphere at 37° C."}, "[2]": {"biological_target": "T1, NUDT5-PPAT interaction (Homo sapiens, UniProt Q9UKK9)", "T1 construct": "endogenous in cells; host or cells: HAP1 WT", "experiment": "immunoprecipitation of endogenous PPAT", "assay_type": "cell-based", "settings": "HAP1 cells, 100 nM, 20 h", "procedure": "For detecting TH5427 interactors and the PPAT-NUDT5 interaction, protein samples were prepared using RIPA buffer containing benzonase (E1014-25KU, Sigma-Aldrich). Protein concentration was measured by DC assay (U.S. Pat. Nos. 5,000,113, 5,000,114, 5,000,115, Biorad). 30 μg protein out of each sample was separated on a SDS-page gel (3450125, Biorad) and transferred to a nitrocellulose membrane (10600014, Sigma-Aldrich) at 0.4 A for 1 h. The membranes were blocked by 5% BLOT-QuickBlocker in PBS-T at room temperature for 1 h (786-011, Bioscience) and incubated with primary antibodies at 4° C. overnight. Then, fluorophor conjugated secondary antibodies diluted 1:500 in 2×BLOT-QuickBlocker in PBS-T were added onto the membrane for 1 h at room temperature. Protein bands were visualized by a Odyssey® DLx Imaging System (Licor). The following primary antibodies were used: NUDT5 (ab129172, Abeam, 1:1000, anti-rabbit) or NUDT5 (sc-398644, 1:200, anti-mouse), β-actin (sc-69879, Santa Cruz Biotechnology, 1:200) and PPAT (15401-1-AP, Proteintech, 1:1000). The following secondary antibodies were used: Alexa Fluor 750 goat anti-mouse IgG (A21037, Life technologies) and goat anti-rabbit IgG (H+L) cross-adsorbed secondary Antibody, Alexa Fluor 647 (A21244, Life technologies).\nHAP-1 WT cells were treated with 100 nM TH5427, dNUDT5 or DMSO for 20 h in a 100 mm dish. […]"}, "[3]": {"test_system": "HAP1 cells", "experiment": "untargeted global proteomics", "assay_type": "cell-based, human", "settings": "100 nM, 6 and 24 h", "procedure": "Proteomics samples were digested with trypsin using STrap columns following the manufacturer's protocol (C02-micro, ProtiFi). For untargeted global proteomics HAP1 cells were treated with DMSO or 100 nM dNUDT5 for 6 h or 24 h. Then, the cell pellets were collected and lysed in 5% SDS containing 1 μL/mL benzonase (E1014, Millipore) and subsequent short sonication to shear genomic DNA (1× 2 s pulse, 20% amplitude, microtip, Sonics Vibra Cell). 50 μg protein from the total cell lysate or 80% of the elution fraction of the chemical pulldown were first reduced by 20 mM dithiothreitol (M02712, Fluorochem), and alkylated by 40 mM iodoacetamide (I1149, Sigma). Phosphoric acid and S-Trap protein binding buffer were added into the sample lysates. Then, the SDS lysate/S-Trap buffer were loaded into a S-Trap column (C02-micro-80, ProtiFi). 1 μg of trypsin (V5111, Promega) was used to digest each sample at 37° C. for 20 h. The samples were then eluted and dried by vacuum centrifugation. […]\nRaw data were searched against the human database (UP000005640, downloaded 08/21) using DIA-NN (Demichev et al. 2020 Nature Methods) by enabling FASTA digest for library free search and Deep learning-based spectra, RTs and IMs prediction. […] The protein groups matrix was further analysed using Perseus (1.6.2.1) or R studio (4.1.1). […] Proteins were removed if detected less than 2 times in each group. […]"}, "[4]": {"biological_target": "T2, NUDT5-CRBN interaction (Homo sapiens, UniProt Q96SW2+Q9UKK9)", "T2 construct": "expressed in transfected cells; host or cells: HEK293", "experiment": "NanoBRET ternary complex formation (protein-protein interaction) assay", "assay_type": "cell-based", "settings": "HEK293 cells, 4 h", "procedure": "For NanoBRET protein-protein interaction assay, NanoBRET Nano-Glo Detection System (N1662, Promega) was used according to the manufacturer's instruction. In brief, 220,000 HEK293 cells/ml was seeded in a 6-well plate. After 6 h, N-terminal nanoLuc NUDT5 and Halo-tag CRBN were then transfected into the cells using Fugene HD transfection reagent (E2312, Promega). The transfected HEK293 (220,000 cells/ml) were then replated onto a 384-well plate containing compounds. After 4 h incubation, NanoLuc substrate was added into each well and the signals were measured by PHERAstar Microplate Reader.\nCompounds were dispensed in the 384-well plates by using Echo Acoustic Dispenser."}, "[5]": {"biological_target": "NUDT5 (Homo sapiens, UniProt Q9UKK9)", "experiment": "CRBN knock-out experiment, NUDT5 degradation", "assay_type": "cell-based", "parameters": "endogenous in cells; host or cells: HEK293 (also CRBN knock-out HEK293 for A13)", "settings": "CRBN knock-out HEK293 cells, 20 h"}},
  "data": [
    {"smiles": "Cn1c(=O)c2c(nc(N3CCN(C(=O)N4CCC(CN5CCN(c6ccc7c(c6)C(=O)N(C6CCC(=O)NC6=O)C7=O)CC5)CC4)CC3)n2Cc2nnc(-c3ccc(Cl)c(Cl)c3)o2)n(C)c1=O", "note": "(stereo not drawn) [dNUDT5, 7-((5-(3,4-dichlorophenyl)-1,3,4-oxadiazol-2-yl)methyl)-8-(4-(4-((4-(2-(2,6-dioxopiperidin-3-yl)-1,3-dioxoisoindolin-5-yl)piperazin-1-yl)methyl)piperidine-1-carbonyl)piperazin-l-yl)-1,3-dimethyl-3,7-dihydro-1H-purine-2,6-dione]", "values": [
      {"measurement": "effect on adenosine-mediated toxicity", "setting": "[1]", "result": "reverses adenosine-mediated toxicity"},
      {"measurement": "amount of NUDT5 interacting with PPAT", "setting": "[2]", "result": "strongly reduced the amount of NUDT5 interacting with PPAT"},
      {"measurement": "proteome-wide specificity of degradation", "setting": "[3]", "result": "highly specific for NUDT5 with no other protein being degraded"},
      {"measurement": "ternary complex formation between NUDT5 and CRBN", "setting": "[4]", "result": "able to induce proficient ternary complex formation"},
      {"measurement": "dependence of degradation on E3 ligase", "setting": "[5]", "result": "E3-ligase-dependant"}
    ]}
  ]
}
